According to the supplement of paper PMC10307832:

Experiments:
Experiment in all cases: relative viability (nuclei count vs DMSO), 5 days (fraction); higher = more cells survive
RERF-LC-KJ = test system: RERF-LC-KJ
Procedure, shortened: (§1)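 Relative viability equals treated-well nuclei counts divided by vehicle-well nuclei counts. Counts came from 4× images of lung cancer cell lines grown in 1536-well plates for 5 days after pin-tool dosing on the day after seeding. Dosing used one drug alone or a fixed anchor-drug dose plus five library-drug doses (not always all listed) in √10 steps, and values are medians of duplicate plates.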

SK-MES-1 = test system: SK-MES-1
Procedure, shortened: as §1

EPLC-272H = test system: EPLC-272H
Procedure, shortened: as §1

HCC-78 = test system: HCC-78
Procedure, shortened: as §1

LCLC-97TM1 = test system: LCLC-97TM1
Procedure, shortened: as §1

NCI-H1650 = test system: NCI-H1650
Procedure, shortened: as §1

LOU-NH91 = test system: LOU-NH91
Procedure, shortened: as §1

SW 900 = test system: SW 900
Procedure, shortened: as §1

NCI-H1734 = test system: NCI-H1734
Procedure, shortened: as §1

NCI-H522 = test system: NCI-H522
Procedure, shortened: as §1

NCI-H2126 = test system: NCI-H2126
Procedure, shortened: as §1

EKVX = test system: EKVX
Procedure, shortened: as §1

BEN = test system: BEN
Procedure, shortened: as §1

HCC-827 = test system: HCC-827
Procedure, shortened: as §1

LK-2 = test system: LK-2
Procedure, shortened: as §1

NCI-H1944 = test system: NCI-H1944
Procedure, shortened: as §1

NCI-H727 = test system: NCI-H727
Procedure, shortened: as §1

EMC-BAC-2 = test system: EMC-BAC-2
Procedure, shortened: as §1

NCI-H358 = test system: NCI-H358
Procedure, shortened: as §1

SW 1573 = test system: SW 1573
Procedure, shortened: as §1

NCI-H2087 = test system: NCI-H2087
Procedure, shortened: as §1

LU99A = test system: LU99A
Procedure, shortened: as §1

COR-L 105 = test system: COR-L 105
Procedure, shortened: as §1

## CCCCCCCCCCCC1=C(O)C(=O)C=C(O)C1=O [Embelin] + O=C(CCCCCCC(=O)Nc1ccccc1)NO [Vorinostat] (partner 1 µM)
RERF-LC-KJ; first compound 0.08 µM
  relative viability: 0.673
RERF-LC-KJ; first compound 0.8 µM
  relative viability: 0.769
RERF-LC-KJ; first compound 2.53 µM
  relative viability: 0.681
RERF-LC-KJ; first compound 8 µM
  relative viability: 0.603
SK-MES-1; first compound 0.08 µM
  relative viability: 1.1
SK-MES-1; first compound 0.8 µM
  relative viability: 1.2
SK-MES-1; first compound 2.53 µM
  relative viability: 1.1
SK-MES-1; first compound 8 µM
  relative viability: 0.898
EPLC-272H; first compound 0.08 µM
  relative viability: 0.372
EPLC-272H; first compound 0.8 µM
  relative viability: 0.62
EPLC-272H; first compound 2.53 µM
  relative viability: 0.471
EPLC-272H; first compound 8 µM
  relative viability: 0.363
HCC-78; first compound 0.08 µM
  relative viability: 0.467
HCC-78; first compound 0.8 µM
  relative viability: 0.547
HCC-78; first compound 2.53 µM
  relative viability: 0.553
HCC-78; first compound 8 µM
  relative viability: 0.401
LCLC-97TM1; first compound 0.08 µM
  relative viability: 0.789
LCLC-97TM1; first compound 0.8 µM
  relative viability: 1.16
LCLC-97TM1; first compound 2.53 µM
  relative viability: 0.652
LCLC-97TM1; first compound 8 µM
  relative viability: 0.496
NCI-H1650; first compound 0.08 µM
  relative viability: 0.634
NCI-H1650; first compound 0.8 µM
  relative viability: 0.641
NCI-H1650; first compound 2.53 µM
  relative viability: 0.543
NCI-H1650; first compound 8 µM
  relative viability: 0.562
LOU-NH91; first compound 0.08 µM
  relative viability: 0.939
LOU-NH91; first compound 0.8 µM
  relative viability: 1.2
LOU-NH91; first compound 2.53 µM
  relative viability: 0.933
LOU-NH91; first compound 8 µM
  relative viability: 0.876
SW 900; first compound 0.08 µM
  relative viability: 0.604
SW 900; first compound 0.8 µM
  relative viability: 0.718
SW 900; first compound 2.53 µM
  relative viability: 0.538
SW 900; first compound 8 µM
  relative viability: 0.315
NCI-H1734; first compound 0.08 µM
  relative viability: 0.868
NCI-H1734; first compound 0.8 µM
  relative viability: 0.968
NCI-H1734; first compound 2.53 µM
  relative viability: 0.929
NCI-H1734; first compound 8 µM
  relative viability: 0.749
NCI-H522; first compound 0.08 µM
  relative viability: 0.876
NCI-H522; first compound 0.8 µM
  relative viability: 0.906
NCI-H522; first compound 2.53 µM
  relative viability: 0.763
NCI-H522; first compound 8 µM
  relative viability: 0.856
NCI-H2126; first compound 0.08 µM
  relative viability: 0.803
NCI-H2126; first compound 0.8 µM
  relative viability: 0.763
NCI-H2126; first compound 2.53 µM
  relative viability: 0.796
NCI-H2126; first compound 8 µM
  relative viability: 0.6
EKVX; first compound 0.08 µM
  relative viability: 0.744
EKVX; first compound 0.8 µM
  relative viability: 0.962
EKVX; first compound 2.53 µM
  relative viability: 0.832
EKVX; first compound 8 µM
  relative viability: 0.754
BEN; first compound 0.08 µM
  relative viability: 0.57
BEN; first compound 0.8 µM
  relative viability: 0.613
BEN; first compound 2.53 µM
  relative viability: 0.647
BEN; first compound 8 µM
  relative viability: 0.515
HCC-827; first compound 0.08 µM
  relative viability: 0.806
HCC-827; first compound 0.8 µM
  relative viability: 0.915
HCC-827; first compound 2.53 µM
  relative viability: 0.966
HCC-827; first compound 8 µM
  relative viability: 0.917
LK-2; first compound 0.08 µM
  relative viability: 0.308
LK-2; first compound 0.8 µM
  relative viability: 0.28
LK-2; first compound 2.53 µM
  relative viability: 0.261
LK-2; first compound 8 µM
  relative viability: 0.307
NCI-H1944; first compound 0.08 µM
  relative viability: 0.577
NCI-H1944; first compound 0.8 µM
  relative viability: 0.643
NCI-H1944; first compound 2.53 µM
  relative viability: 0.656
NCI-H1944; first compound 8 µM
  relative viability: 0.589
NCI-H727; first compound 0.08 µM
  relative viability: 1.31
NCI-H727; first compound 0.8 µM
  relative viability: 1.11
NCI-H727; first compound 2.53 µM
  relative viability: 1.32
NCI-H727; first compound 8 µM
  relative viability: 1.22
EMC-BAC-2; first compound 0.08 µM
  relative viability: 0.344
EMC-BAC-2; first compound 0.8 µM
  relative viability: 0.561
EMC-BAC-2; first compound 2.53 µM
  relative viability: 0.257
EMC-BAC-2; first compound 8 µM
  relative viability: 0.269
NCI-H358; first compound 0.08 µM
  relative viability: 0.699
NCI-H358; first compound 0.8 µM
  relative viability: 0.876
NCI-H358; first compound 2.53 µM
  relative viability: 0.707
NCI-H358; first compound 8 µM
  relative viability: 0.697
SW 1573; first compound 0.08 µM
  relative viability: 0.7
SW 1573; first compound 0.8 µM
  relative viability: 1.1
SW 1573; first compound 2.53 µM
  relative viability: 0.817
SW 1573; first compound 8 µM
  relative viability: 0.716
NCI-H2087; first compound 0.08 µM
  relative viability: 0.659
NCI-H2087; first compound 0.8 µM
  relative viability: 0.714
NCI-H2087; first compound 2.53 µM
  relative viability: 0.759
NCI-H2087; first compound 8 µM
  relative viability: 0.744
LU99A; first compound 0.08 µM
  relative viability: 0.56
LU99A; first compound 0.8 µM
  relative viability: 0.461
LU99A; first compound 2.53 µM
  relative viability: 0.586
LU99A; first compound 8 µM
  relative viability: 0.336
COR-L 105; first compound 0.08 µM
  relative viability: 0.867
COR-L 105; first compound 0.8 µM
  relative viability: 0.906
COR-L 105; first compound 2.53 µM
  relative viability: 0.904
COR-L 105; first compound 8 µM
  relative viability: 0.787
